Common to all, as to type: biochemical
The target in experiment [1] is T1, CYP3A4 (Homo sapiens, UniProt P08684).
T1 construct: 0.1 mg/mL human liver microsomes; from tissue; host or cells: human liver microsomes
Put plainly: IC50 against CYP3A4 by inhibition of testosterone metabolism in human liver microsomes. To be noted: 0.1 mg/mL human liver microsomes, 25 μM testosterone, 1 mM NADPH, 6-β-OH-testosterone production, eight minutes; read-out: IC50, μM (HLM, testosterone). The protocol: 2. Determination of IC50 Against CYP3A4 by Measurement of Inhibition of Testosterone Metabolism
This assay was performed using a standard 96 well plate design. […] Quantitation of metabolite peak area ratio against an internal standard is determined by LC-MS/MS analysis. The production of 6-β-OH-testosterone from testosterone metabolism is determined after incubation for eight minutes by comparison to a standard curve generated for the metabolite
(§1) Samples were analyzed in the MRM mode using a Sciex API 3000 mass spectrometer (Applied Biosystems, Foster City, Calif.) with a Paradigm MS4 binary pump (Michrom BioResources Inc., Auburn, Calif.) and a LEAP CTC PAL autosampler (LEAP Technologies, Carrboro, N.C.). A Phenomenex Synergi, 4μ, Polar-RP, 10×2.0 mm column (Phenomenex, Torrance, Calif.) was used for separation with a mobile phase composition of: 0.1% formic acid in water (A) and: 0.1% formic acid in methanol (B). The following gradient was used: […]
(§2) The sample injection volume was 10 μL and flow was split post-column with 0.4 mL/min going to the mass spectrometer. Analysis was performed using the following API 3000 mass spectrometer settings: […]
(Liver microsomes are a subcellular fraction often used to study metabolism.)

For experiment [2], the target named is T2, recombinant CYP3A4-b5 enzyme (Baculosomes®) (Homo sapiens, UniProt P08684).
T2 construct: purchased Invitrogen (Carlsbad, Calif.)
T2 sequence (P08684 whole entry): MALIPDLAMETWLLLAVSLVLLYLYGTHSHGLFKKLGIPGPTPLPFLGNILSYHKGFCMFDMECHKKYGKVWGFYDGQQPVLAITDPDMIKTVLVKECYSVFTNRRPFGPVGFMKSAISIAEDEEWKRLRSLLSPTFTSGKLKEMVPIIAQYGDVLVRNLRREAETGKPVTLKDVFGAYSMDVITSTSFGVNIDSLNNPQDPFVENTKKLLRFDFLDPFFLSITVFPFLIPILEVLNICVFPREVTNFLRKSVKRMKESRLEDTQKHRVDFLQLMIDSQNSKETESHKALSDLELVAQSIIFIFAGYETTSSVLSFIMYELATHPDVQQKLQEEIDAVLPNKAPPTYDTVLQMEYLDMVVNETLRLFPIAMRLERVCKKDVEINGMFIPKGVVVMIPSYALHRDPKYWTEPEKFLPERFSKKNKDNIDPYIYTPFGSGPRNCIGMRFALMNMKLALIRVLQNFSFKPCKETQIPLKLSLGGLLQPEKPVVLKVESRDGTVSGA
Put plainly: Kiapp against recombinant CYP3A4 enzyme (Baculosomes), BFC substrate. Particulars: recombinant CYP3A4-b5 (Invitrogen), 5 uM BFC, 200 uM NADPH, pre-incubation at least 30 minutes, pH 7.0, room temperature. The protocol: 1. Determination of Compound Kiapp
A determination of the Kiapp of the compounds of the invention against recombinant CYP3A4 enzyme was performed as follows. The assay was performed in a 100 mM sodium phosphate buffer pH 7.0, 5 mM TCEP and containing 2% dimethylformamide (final concentration) upon addition of substrate and inhibitor. A typical reaction for the determination of Kiapp values was carried at room temperature in a solid black Costar u-bottom 96-well polypropylene plate. […] When pre-incubation was completed (˜30 min), the reaction was initiated by adding NADPH (200 uM, final concentration), and 7-benzyloxy-4-(trifluoromethyl)-coumarin (BFC) (5 uM, final concentration). The oxidation of the coumarin substrate was recorded by a 96-well plate reader POLARstar (BMG LABTECH, Offenburg, Germany).
The initial reaction velocities were measured during the first 5 min of the reaction when the release of the fluorescent product is linear with time, in the absence and in the presence of various concentrations of inhibitors.
The fluorescent substrate BFC was purchased from Sigma (St Louis, Mo.). Two commercial sources of recombinant enzymes were used in this study: recombinant CYP3A4-b5 enzyme (Baculosomes®) was purchased from Invitrogen (Carlsbad, Calif.) and the recombinant CYP3A4+b5 enzyme (Supersomes®) was purchased from BD Biosciences (Woburn, Mass.).

The target in experiment [3] is T1, CYP3A4. Put plainly: IC50 against CYP3A4 by inhibition of midazolam metabolism in human liver microsomes. To be noted: 0.1 mg/mL human liver microsomes, 2 μM midazolam, 1 mM NADPH, 1-hydroxymidazolam production, eight minutes; read-out: IC50, μM (HLM, midazolam). The protocol: 3. Determination of IC50 Against CYP3A4 by Measurement of Inhibition of Midazolam Metabolism
This assay was performed using a standard 96 well plate design. […] The incubation substrate mix contains 2 μM midazolam, 0.1 mg/mL human liver microsomes, 1 mM NADPH, and potassium phosphate buffer (100 mM, pH 7.4). Quantitation of metabolite peak area ratio against internal standard is determined by LC-MS/MS analysis. The production of 1-hydroxymidazolam from midazolam metabolism is determined after incubation for eight minutes by comparison to a standard curve generated for the metabolite.
as §1, §2

The structures appear in SMILES notation. Where a name gives a salt, the structure may show the parent alone.

For orientation: IC50 means the concentration that gives 50% inhibition.

T1 sequence (P08684 whole entry): as above

`CCC(=O)N1CC(n2nc(-c3ccncc3)cc2Cc2ccc(F)cc2)C1` [Example 22, 1-(3-(5-(4-fluorobenzyl)-3-(pyridin-4-yl)-1H-pyrazol-1-yl)azetidin-1-yl)propan-1-one]: the half-maximal inhibitory concentration (IC50) worked out at 0.072 µM on CYP3A4 [1] and 0.084 µM at CYP3A4 [3]. The Ki in experiment [2] is 0.166 µM.

In the case of `CS(=O)(=O)N1CC(n2nc(-c3ccncc3)cc2Cc2ccc(F)cc2)C1` [Example 23, 4-{5-(4-fluorobenzyl)-1-[1-(methylsulfonyl)azetidin-3-yl]-1H-pyrazol-3-yl}pyridine], the IC50 on CYP3A4 [1] was found to be 0.218 µM; at CYP3A4 [3] it was 0.375 µM. For the same compound, in experiment [2], the Ki was determined as 0.159 µM.

Regarding `O=C(c1ncc[nH]1)N1CC(n2nc(-c3ccncc3)cc2Cc2ccc(F)cc2)C1` [Example 24, 4-{5-(4-fluorobenzyl)-1-[1-(1H-imidazol-2-ylcarbonyl)azetidin-3-yl]-1H-pyrazol-3-yl}pyridine], the results for the IC50 at CYP3A4 [1] and on CYP3A4 [3] were 0.047 µM and 0.027 µM, respectively. Further, the Ki in experiment [2] amounted to 0.0772 µM.

As to `Fc1ccc(Cc2cc(-c3ccncc3)nn2Cc2nc(-c3ncccn3)no2)cc1` [Example 25, 2-(5-{[5-(4-fluorobenzyl)-3-pyridin-4-yl-1H-pyrazol-1-yl]methyl}-1,2,4-oxadiazol-3-yl)pyrimidine], the IC50 is below 0.012 µM at CYP3A4 [1] and 0.045 µM at CYP3A4 [3]. Further, the Ki in experiment [2] was 0.0568 µM.

Take `CN(C)C(=O)c1noc(Cn2nc(-c3ccncc3)cc2Cc2ccc(F)cc2)n1` [Example 27, 5-{[5-(4-fluorobenzyl)-3-pyridin-4-yl-1H-pyrazol-1-yl]methyl}-N,N-dimethyl-1,2,4-oxadiazole-3-carboxamide (maleic acid salt)]: the half-maximal inhibitory concentration (IC50) was 0.021 µM at CYP3A4 [1] and 0.086 µM at CYP3A4 [3]. Further, in experiment [2], the Ki came to 0.12 µM.

For the compound `Cc1nnc(Cn2nc(-c3ccncc3)cc2Cc2ccc(F)cc2)o1` [Example 28, 4-{5-(4-fluorobenzyl)-1-[(5-methyl-1,3,4-oxadiazol-2-yl)methyl]-1H-pyrazol-3-yl}pyridine], the half-maximal inhibitory concentration (IC50) on CYP3A4 [1] amounted to 0.0305 µM; on CYP3A4 [3] it was 0.0792 µM. Further, in experiment [2], the Ki worked out at 0.608 µM.

On to `OCCn1nc(Cc2ccc(F)cc2)cc1-c1ccncc1` [Example 30, 2-[3-(4-fluorobenzyl)-5-pyridin-4-yl-1H-pyrazol-1-yl]ethanol], for which the figures for the IC50 at CYP3A4 [1] and at CYP3A4 [3] were 0.446 µM and 0.773 µM, respectively. Besides, the Ki in experiment [2] amounted to 0.646 µM.

Turning to `COCCn1nc(-c2ccncc2)cc1Cc1ccc(F)cc1` [Example 31, 4-(5-(4-fluorobenzyl)-1-(2-methoxyethyl)-1H-pyrazol-3-yl)pyridine], the figures for the half-maximal inhibitory concentration (IC50) at CYP3A4 [1] and at CYP3A4 [3] were 0.0225 µM and 0.0466 µM, respectively. Moreover, in experiment [2], the Ki was found to be 0.105 µM.

Consider `OCCCn1nc(-c2ccncc2)cc1Cc1ccc(F)cc1` [Example 32, 3-(5-(4-fluorobenzyl)-3-(pyridin-4-yl)-1H-pyrazol-1-yl)propan-1-ol], for which the IC50 at CYP3A4 [1] amounted to 0.015 µM; at CYP3A4 [3], 0.061 µM. Besides, the Ki in experiment [2] worked out at 0.12 µM.

For the compound `O=C(Cn1nc(-c2c[nH]cn2)cc1Cc1ccc(F)cc1)N1CCC[C@@H](O)C1` [Example 40, (3R)-1-{[5-(4-fluorobenzyl)-3-(1H-imidazol-4-yl)-1H-pyrazol-1-yl]acetyl}piperidin-3-ol], the figures for the IC50 at CYP3A4 [1] and on CYP3A4 [3] were above 0.75 µM and 0.446 µM, respectively. Also, in experiment [2], the Ki is above 1 µM.

`CC(O)Cn1nc(-c2ccncc2)cc1Cc1ccc(F)cc1` (stereo not drawn) [Example 52, 1-[5-(4-fluorobenzyl)-3-pyridin-4-yl-1H-pyrazol-1-yl]propan-2-ol]: the values for the IC50 on CYP3A4 [1] and at CYP3A4 [3] were 0.056 µM and 0.071 µM, respectively. Further, the Ki in experiment [2] stood at 0.175 µM.

`O=C(Cn1nc(-c2ccncc2)cc1Cc1ccc(F)cc1)NC1CCC1` [Example 53, N-cyclobutyl-2-[5-(4-fluorobenzyl)-3-pyridin-4-yl-1H-pyrazol-1-yl]acetamide]: the IC50 on CYP3A4 [1] came out at 0.095 µM; on CYP3A4 [3], 0.028 µM. Further, in experiment [2], the Ki turned out to be 0.034 µM.

On to `CC(C)(CN1CCOCC1)NC(=O)Cn1nc(-c2ccncc2)cc1Cc1ccc(F)cc1` [Example 54, N-(1,1-dimethyl-2-morpholin-4-ylethyl)-2-[5-(4-fluorobenzyl)-3-pyridin-4-yl-1H-pyrazol-1-yl]acetamide], for which the IC50 on CYP3A4 [1] and on CYP3A4 [3] was below 0.012 µM throughout. In addition, in experiment [2], the Ki was found to be 0.0085 µM.

In the case of `O=C(Cn1nc(-c2ccncc2)cc1Cc1ccc(F)cc1)NCCN1CCOCC1` [Example 55, 2-[5-(4-fluorobenzyl)-3-pyridin-4-yl-1H-pyrazol-1-yl]-N-(2-morpholin-4-ylethyl)acetamide], the 50% inhibitory concentration (IC50) on CYP3A4 [1] was below 0.012 µM; on CYP3A4 [3], 0.044 µM. The Ki in experiment [2] stood at 0.101 µM.

As to `O=C(Cn1nc(-c2ccncc2)cc1Cc1ccc(F)cc1)N1CCN(c2ncccn2)CC1` [Example 56, 2-(4-{[5-(4-fluorobenzyl)-3-pyridin-4-yl-1H-pyrazol-1-yl]acetyl}piperazin-1-yl)pyrimidine], the IC50 at CYP3A4 [1] and at CYP3A4 [3] was below 0.012 µM throughout. The Ki in experiment [2] worked out at 0.0303 µM.

For the compound `CC(C)(N)CNC(=O)Cn1nc(-c2ccncc2)cc1Cc1ccc(F)cc1` [Example 57, N-(2-amino-2-methylpropyl)-2-[5-(4-fluorobenzyl)-3-pyridin-4-yl-1H-pyrazol-1-yl]acetamide], the results for the half-inhibitory concentration (IC50) on CYP3A4 [1] and on CYP3A4 [3] were 0.062 µM and 0.064 µM, respectively. Besides, the Ki in experiment [2] was found to be 0.124 µM.

`CC(C)NC(=O)Cn1nc(-c2ccncc2)cc1Cc1ccc(F)cc1` [Example 58, 2-[5-(4-fluorobenzyl)-3-pyridin-4-yl-1H-pyrazol-1-yl]-N-isopropylacetamide]: the IC50 on CYP3A4 [1] is 0.027 µM; on CYP3A4 [3] it was 0.043 µM. Moreover, in experiment [2], the Ki came to 0.103 µM.

Consider `Cc1noc(Cn2nc(-c3ccncc3)cc2Cc2ccc(F)cc2)n1` [Example 59, 4-{5-(4-fluorobenzyl)-1-[(3-methyl-1,2,4-oxadiazol-5-yl)methyl]-1H-pyrazol-3-yl}pyridine], for which the IC50 was 0.0665 µM at CYP3A4 [1] and 0.0944 µM at CYP3A4 [3]. In addition, the Ki in experiment [2] stood at 0.142 µM.

In the case of `CC(C)(O)CNC(=O)Cn1nc(-c2ccncc2)cc1Cc1ccc(F)cc1` [Example 60, 2-[5-(4-fluorobenzyl)-3-pyridin-4-yl-1H-pyrazol-1-yl]-N-(2-hydroxy-2-methylpropyl)acetamide], the concentration for half-maximal inhibition (IC50) on CYP3A4 [1] worked out at 0.032 µM; on CYP3A4 [3], 0.02 µM. Besides, the Ki in experiment [2] is 0.0765 µM.

Regarding `CN1CCN(C(=O)Cn2nc(-c3ccncc3)cc2Cc2ccc(F)cc2)CC1` [Example 61, 1-{[5-(4-fluorobenzyl)-3-pyridin-4-yl-1H-pyrazol-1-yl]acetyl}-4-methylpiperazine], the half-maximal inhibitory concentration (IC50) on CYP3A4 [1] came out at 0.038 µM; at CYP3A4 [3], 0.016 µM. Also, the Ki in experiment [2] amounted to 0.134 µM.

Consider `O=C(Cn1nc(-c2ccncc2)cc1Cc1ccc(F)cc1)N1CCNCC1` [Example 62, 1-{[5-(4-fluorobenzyl)-3-pyridin-4-yl-1H-pyrazol-1-yl]acetyl}piperazine], for which the half-inhibitory concentration (IC50) on CYP3A4 [1] worked out at 0.111 µM; at CYP3A4 [3], 0.047 µM. In experiment [2], the Ki was determined as 0.604 µM.

As for `C[C@@H](O)CNC(=O)Cn1nc(-c2ccncc2)cc1Cc1ccc(F)cc1` [Example 63, 2-[5-(4-fluorobenzyl)-3-pyridin-4-yl-1H-pyrazol-1-yl]-N-[(2R)-2-hydroxypropyl]acetamide], the IC50 on CYP3A4 [1] is 0.048 µM; at CYP3A4 [3], 0.04 µM. Moreover, the Ki in experiment [2] was 0.178 µM.

For `C[C@H](O)CNC(=O)Cn1nc(-c2ccncc2)cc1Cc1ccc(F)cc1` [Example 64, 2-[5-(4-fluorobenzyl)-3-pyridin-4-yl-1H-pyrazol-1-yl]-N-[(2S)-2-hydroxypropyl]acetamide], the concentration for half-maximal inhibition (IC50) on CYP3A4 [1] came to 0.032 µM; at CYP3A4 [3], 0.028 µM. Also, the Ki in experiment [2] amounted to 0.185 µM.

Source of the values: US7919488B2, “Therapeutic compounds” (Pfizer Inc., priority 2006, dated 2011).
